# Experimental data reported in patent US20210254056A1, “IDENTIFICATION AND TARGETED MODULATION OF GENE SIGNALING NETWORKS” (CAMP4 THERAPEUTICS CORPORATION, priority 2017, published 2021).
# Test system: hepatocytes
# Assay: RNA-seq of hepatocytes treated with Phase III failure compounds
# Method: RNA-seq was performed to determine the effects of the compounds on hepatocytes.
# Significance was determined by the criteria of FPKM≥0.5, a log 2(fold-change)≥1, and a […].
structure (smiles),measurement,setting,value
CCOC(=O)N1c2ccc(C(F)(F)F)cc2[C@@H](N(Cc2cc(C(F)(F)F)cc(C(F)(F)F)c2)C(=O)OC)C[C@H]1CC [Torcetrapib],"RNA-seq results, CYP2B6 expression",,0.36
same,"RNA-seq results, CYP2C19 expression",,0.61
same,"RNA-seq results, CYP2D6 expression",,−0.16
same,"RNA-seq results, CYP3A4 expression",,1.87
same,"RNA-seq results, CYP7B1 expression",,0.26
same,"RNA-seq results, CYP39A1 expression",,0.03
same,RNA-seq results: CYP2B6 expression,,0.09
same,RNA-seq results: CYP2C19 expression,,−0.14
same,RNA-seq results: CYP2D6 expression,,0.24
same,RNA-seq results: CYP3A4 expression,,0.49
same,RNA-seq results: CYP7B1 expression,,−0.44
same,RNA-seq results: CYP39A1 expression,,0
same,significant modulation of expression of disease genes,"RNA-seq, q≤0.05, hepatocytes, genes in the value or listed in the block","significantly (q≤0.05) modulate expression of the following genes: ACTG2, CYP3A4, ID1, KMT2D, and UTRN"
same,RNA-seq results: A1BG expression,"gene A1BG, hepatocytes",−0.38
same,RNA-seq results: AGTR1 expression,"gene AGTR1, hepatocytes",−0.45
same,RNA-seq results: AGXT expression,"gene AGXT, hepatocytes",−0.25
same,RNA-seq results: AHI1 expression,"gene AHI1, hepatocytes",0.19
same,RNA-seq results: AMPD3 expression,"gene AMPD3, hepatocytes",0.28
same,RNA-seq results: AMT expression,"gene AMT, hepatocytes",−0.11
same,RNA-seq results: ANGPTL3 expression,"gene ANGPTL3, hepatocytes",−0.46
same,RNA-seq results: ANKS4B expression,"gene ANKS4B, hepatocytes",−0.02
same,RNA-seq results: ANKS6 expression,"gene ANKS6, hepatocytes",0.19
same,RNA-seq results: ANPEP expression,"gene ANPEP, hepatocytes",−0.19
same,RNA-seq results: AOC2 expression,"gene AOC2, hepatocytes",0.53
same,RNA-seq results: APOA2 expression,"gene APOA2, hepatocytes",−0.76
same,RNA-seq results: APOA5 expression,"gene APOA5, hepatocytes",−0.36
same,RNA-seq results: APOB expression,"gene APOB, hepatocytes",0.90
same,RNA-seq results: COG5 expression,"gene COG5, hepatocytes",0.24
same,RNA-seq results: COG6 expression,"gene COG6, hepatocytes",0.29
same,RNA-seq results: COL1A1 expression,"gene COL1A1, hepatocytes",−0.43
same,RNA-seq results: COX6A1 expression,"gene COX6A1, hepatocytes",0.62
same,RNA-seq results: CP expression,"gene CP, hepatocytes",−0.27
same,RNA-seq results: CPS1 expression,"gene CPS1, hepatocytes",−0.75
same,RNA-seq results: CPT1A expression,"gene CPT1A, hepatocytes",−0.4
same,RNA-seq results: CPT2 expression,"gene CPT2, hepatocytes",−0.1
same,RNA-seq results: CROT expression,"gene CROT, hepatocytes",−0.33
same,RNA-seq results: CSPP1 expression,"gene CSPP1, hepatocytes",0.17
same,RNA-seq results: CTC1 expression,"gene CTC1, hepatocytes",−0.2
same,RNA-seq results: CTDSP2 expression,"gene CTDSP2, hepatocytes",0.03
same,RNA-seq results: CTH expression,"gene CTH, hepatocytes",2.52
same,RNA-seq results: CTNS expression,"gene CTNS, hepatocytes",−0.12
same,RNA-seq results: CTSF expression,"gene CTSF, hepatocytes",0.3
same,RNA-seq results: CTSK expression,"gene CTSK, hepatocytes",0
same,RNA-seq results: CYB5A expression,"gene CYB5A, hepatocytes",0.21
same,RNA-seq results: CYB5R3 expression,"gene CYB5R3, hepatocytes",0.07
same,RNA-seq results: CYP27A1 expression,"gene CYP27A1, hepatocytes",0.12
same,RNA-seq results: DAO expression,"gene DAO, hepatocytes",−0.72
same,RNA-seq results: DBT expression,"gene DBT, hepatocytes",0
same,RNA-seq results: DCDC2 expression,"gene DCDC2, hepatocytes",−0.51
same,RNA-seq results: DCXR expression,"gene DCXR, hepatocytes",0.37
same,RNA-seq results: FABP1 expression,"gene FABP1, hepatocytes",0.58
same,RNA-seq results: FADD expression,"gene FADD, hepatocytes",0.43
same,RNA-seq results: FAM111A expression,"gene FAM111A, hepatocytes",−0.26
same,RNA-seq results: FAM111B expression,"gene FAM111B, hepatocytes",−1.74
same,RNA-seq results: FAN1 expression,"gene FAN1, hepatocytes",0.14
same,RNA-seq results: FARS2 expression,"gene FARS2, hepatocytes",0.06
same,RNA-seq results: FASLG expression,"gene FASLG, hepatocytes",−1.19
same,RNA-seq results: FGA expression,"gene FGA, hepatocytes",−0.25
same,RNA-seq results: FGD1 expression,"gene FGD1, hepatocytes",−0.63
same,RNA-seq results: FGFR2 expression,"gene FGFR2, hepatocytes",0.15
same,RNA-seq results: FIG4 expression,"gene FIG4, hepatocytes",0
same,RNA-seq results: FIS1 expression,"gene FIS1, hepatocytes",0.52
same,RNA-seq results: FTCD expression,"gene FTCD, hepatocytes",−0.05
same,RNA-seq results: FTH1 expression,"gene FTH1, hepatocytes",0.6
same,RNA-seq results: FUCA1 expression,"gene FUCA1, hepatocytes",0.01
same,RNA-seq results: FXN expression,"gene FXN, hepatocytes",−0.17
same,RNA-seq results: G6PC3 expression,"gene G6PC3, hepatocytes",−0.07
same,RNA-seq results: G6PC expression,"gene G6PC, hepatocytes",−0.17
same,RNA-seq results: G6PD expression,"gene G6PD, hepatocytes",−0.05
same,RNA-seq results: GALK1 expression,"gene GALK1, hepatocytes",0.4
same,RNA-seq results: GALK2 expression,"gene GALK2, hepatocytes",0.22
same,RNA-seq results: GALT expression,"gene GALT, hepatocytes",−0.21
same,RNA-seq results: GATA6 expression,"gene GATA6, hepatocytes",0.17
same,RNA-seq results: GATM expression,"gene GATM, hepatocytes",−0.33
same,RNA-seq results: GBA expression,"gene GBA, hepatocytes",−0.07
same,RNA-seq results: GBE1 expression,"gene GBE1, hepatocytes",0.39
same,RNA-seq results: GCH1 expression,"gene GCH1, hepatocytes",0.23
same,RNA-seq results: GCKR expression,"gene GCKR, hepatocytes",−0.19
same,RNA-seq results: GCLC expression,"gene GCLC, hepatocytes",0.13
same,RNA-seq results: GOSH expression,"gene GOSH, hepatocytes",0.22
same,RNA-seq results: RRM2B,"gene RRM2B, hepatocytes",0.48
same,RNA-seq results: RSAD1,"gene RSAD1, hepatocytes",−0.11
same,RNA-seq results: SAMHD1,"gene SAMHD1, hepatocytes",0.25
same,RNA-seq results: SC5D,"gene SC5D, hepatocytes",−0.01
same,RNA-seq results: SCARB1,"gene SCARB1, hepatocytes",−0.17
same,RNA-seq results: SCN9A,"gene SCN9A, hepatocytes",0.25
same,RNA-seq results: SDCCAG8,"gene SDCCAG8, hepatocytes",−0.03
same,RNA-seq results: SEPN1,"gene SEPN1, hepatocytes",0.28
same,RNA-seq results: SERAC1,"gene SERAC1, hepatocytes",0.29
same,RNA-seq results: SERPINA1,"gene SERPINA1, hepatocytes",−0.19
same,RNA-seq results: SERPING1,"gene SERPING1, hepatocytes",−0.11
same,RNA-seq results: SERPINI1,"gene SERPINI1, hepatocytes",−0.19
same,RNA-seq results: SETBP1,"gene SETBP1, hepatocytes",−0.14
same,RNA-seq results: SFXN4,"gene SFXN4, hepatocytes",−0.46
same,RNA-seq results: SLC10A1,"gene SLC10A1, hepatocytes",−0.03
same,RNA-seq results: SLC10A3,"gene SLC10A3, hepatocytes",0.11
same,RNA-seq results: SLC10A5,"gene SLC10A5, hepatocytes",0.18
same,RNA-seq results: SLC10A7,"gene SLC10A7, hepatocytes",0.23
same,RNA-seq results: SLC11A2,"gene SLC11A2, hepatocytes",0.32
same,RNA-seq results: SLC19A1,"gene SLC19A1, hepatocytes",−0.21
same,RNA-seq results: SLC19A2,"gene SLC19A2, hepatocytes",0.32
same,RNA-seq results: SLC19A3,"gene SLC19A3, hepatocytes",−0.31
same,RNA-seq results: SLC22A1,"gene SLC22A1, hepatocytes",−0.22
same,RNA-seq results: SLC22A5,"gene SLC22A5, hepatocytes",−0.06
same,RNA-seq results: SLC25A1,"gene SLC25A1, hepatocytes",−0.33
same,RNA-seq results: SLC25A10,"gene SLC25A10, hepatocytes",−0.31
same,RNA-seq results: SLC25A12,"gene SLC25A12, hepatocytes",−0.27
same,RNA-seq results: SLC25A13,"gene SLC25A13, hepatocytes",0.25
same,RNA-seq results: SLC25A15,"gene SLC25A15, hepatocytes",−0.09
same,RNA-seq results: SLC25A19,"gene SLC25A19, hepatocytes",−0.43
same,RNA-seq results: SLC25A20,"gene SLC25A20, hepatocytes",−0.35
same,RNA-seq results: SLC25A29,"gene SLC25A29, hepatocytes",−0.13
same,RNA-seq results: SLC25A32,"gene SLC25A32, hepatocytes",−0.10
